The values that follow come from US9139532B2, “Pyrazolyl guanidine F1F0-atpase inhibitors and therapeutic uses thereof” (Lycera Corporation, priority 2010, dated 2015).

One assay deals with T1, F1F0-ATPase (Bos taurus, UniProt P13621).
T1 construct: from tissue
In words: Inhibition of F1F0-ATPase activity in synthesizing ATP. As to conditions: inhibition of ATP synthesis by F1F0-ATPase; read-out: ATP Syn IC50. The class given is biochemical.

Another assay has as its system Ramos cells. As to the kind of experiment: Cytotoxicity in Ramos cells. The class given is cell-based. To be noted: cytotoxicity in Ramos cells, read-out: Ramos Cell EC50.

Like-named read-outs stand apart in the source and are kept apart here.

In general, IC50 refers to the concentration at which inhibition is half-maximal. In general, EC50 refers to the midpoint of the concentration-response curve. On to `CC(C)CN/C(=N/C(=O)c1ccc(F)cc1)Nc1cc(-c2cc(F)cc(F)c2)n[nH]1` [Compound A-244], for which the IC50 on F1F0-ATPase was below 10 µM. For the same compound, in the assay with Ramos cells, the EC50 is below 10 µM.
Consider `O=C(/N=C(\Nc1cc(-c2cc(F)cc(F)c2)n[nH]1)NC1CCCC1)c1ccc(F)cc1` [Compound A-243], for which the IC50 at F1F0-ATPase is below 10 µM. The EC50 in the assay with Ramos cells was below 10 µM.
`Cc1cc(C(=O)N=C(Nc2cc(C(F)(F)F)[nH]n2)NC(C)CO)ccc1F` (stereo not drawn) [Compound A-404]: the IC50 at F1F0-ATPase was below 10 µM. Moreover, the EC50 in the assay with Ramos cells was above 10 µM.
On to `O=C(/N=C(\Nc1cc(C(F)(F)F)[nH]n1)NC1CCCCCC1)c1ccc(F)c(F)c1` [Compound A-41], for which the IC50 on F1F0-ATPase is below 10 µM. For the same compound, the EC50 in the assay on Ramos cells (Homo sapiens) was below 10 µM.
Take `CC(C)(C)N/C(=N/C(=O)c1ccc(F)c(F)c1)Nc1cc(-c2cc(F)cc(Cl)c2)n[nH]1` [Compound A-290]: on F1F0-ATPase, the IC50 was below 10 µM. Moreover, the EC50 in the assay with Ramos cells is below 10 µM.
As for `COC[C@H](C)N/C(=N/C(=O)c1cccc(C#N)c1)Nc1cc(-c2ccc(F)cc2)[nH]n1` [Compound A-526], the IC50 at F1F0-ATPase was below 10 µM. Also, the EC50 with Ramos cells is above 10 µM.
In the case of `Cc1cc(N/C(=N\C(=O)c2ccc(F)c(F)c2)NCC(C)(C)C)n[nH]1` [Compound A-187], the IC50 on F1F0-ATPase was below 10 µM. In the assay on Ramos cells, the EC50 is below 10 µM.
On to `CC(C)(C)c1cc(NC(=NC(=O)c2ccc(Cl)c(F)c2)Nc2cc(-c3cc(F)cc(F)c3)n[nH]2)no1` [Compound A-345], for which the IC50 at F1F0-ATPase was above 10 µM. The EC50 in the assay on Ramos cells (Homo sapiens) was above 10 µM.
With `Cc1ccc(C(=O)/N=C(\Nc2cc(-c3ccc(F)cc3)[nH]n2)NC(C)(C)C)cc1` [Compound A-550], on F1F0-ATPase, the IC50 is below 10 µM. In addition, in the assay on Ramos cells, the EC50 is below 10 µM.
Regarding `O=C(N=C(Nc1cc(-c2ccc(Cl)cc2)n[nH]1)NC1CCCC1)c1ccc(F)c(F)c1` [Compound A-378], at F1F0-ATPase, the IC50 was below 10 µM. For the same compound, the EC50 in the assay with Ramos cells (Homo sapiens) is below 10 µM.
`O=C(/N=C(\Nc1cc(C(F)(F)F)[nH]n1)NC1CCOCC1)c1ccc(Cl)cc1` [Compound A-124]: the IC50 on F1F0-ATPase was below 10 µM. Further, the EC50 with Ramos cells (Homo sapiens) was above 10 µM.
Regarding `CC(C)C(C)NC(=NC(=O)c1ccc(Cl)c(F)c1)Nc1cc(-c2cc(F)cc(F)c2)n[nH]1` (stereo not drawn) [Compound A-351], the IC50 at F1F0-ATPase was below 10 µM. Also, the EC50 in the assay on Ramos cells (Homo sapiens) is below 10 µM.
For `COCC(C)N/C(=N/C(=O)c1ccc(Cl)c(F)c1)Nc1cc(C(F)(F)F)n[nH]1` (stereo not drawn) [Compound A-120], the IC50 at F1F0-ATPase is below 10 µM. For the same compound, the EC50 in the assay on Ramos cells (Homo sapiens) is below 10 µM.
For the compound `Cc1cc(-c2cc(N/C(=N\C(=O)c3ccc(C(F)(F)F)cc3)NC(C)(C)C)n[nH]2)ccc1F` [Compound A-417], the IC50 on F1F0-ATPase was below 10 µM. In the assay with Ramos cells, the EC50 was below 10 µM.
`O=C(/N=C(\Nc1cc(C(F)(F)F)[nH]n1)NC1CCC(O)CC1)c1ccc(Cl)c(F)c1` (stereo not drawn) [Compound A-557]: on F1F0-ATPase, the IC50 is above 10 µM. Further, in the assay on Ramos cells, the EC50 was above 10 µM.
Turning to `COCC(C)NC(=NC(=O)c1ccc(OC)cc1F)Nc1cc(-c2ccc(F)cc2)n[nH]1` (stereo not drawn) [Compound A-371], on F1F0-ATPase, the IC50 was above 10 µM. The EC50 in the assay with Ramos cells was above 10 µM.
Regarding `CCOCCCN/C(=N/C(=O)c1ccc(C(F)(F)F)cc1)Nc1cc(C)[nH]n1` [Compound A-184], the IC50 on F1F0-ATPase is above 10 µM. The EC50 in the assay with Ramos cells was above 10 µM.
Regarding `CCOCCN/C(=N/C(=O)c1ccc(F)cc1)Nc1cc(C(F)(F)F)[nH]n1` [Compound A-410], on F1F0-ATPase, the IC50 was below 10 µM. In addition, in the assay with Ramos cells, the EC50 is above 10 µM.
Consider `CC(C)(C)N/C(=N/C(=O)c1ccc(F)c(F)c1)Nc1[nH]nc(-c2ccc(Cl)cc2)c1F` [Compound A-162], for which the IC50 at F1F0-ATPase was below 10 µM. In the assay on Ramos cells, the EC50 is below 10 µM.
Take `COCC(C)(C)NC(=NC(=O)c1ccc(F)cc1)Nc1cc(-c2ccc(F)cc2)n[nH]1` [Compound A-505]: the IC50 on F1F0-ATPase is below 10 µM. Also, the EC50 with Ramos cells (Homo sapiens) was below 10 µM.
For `COc1ccc(-c2cc(N/C(=N\C(=O)c3ccc(Cl)c(F)c3)NC(C)(C)C)[nH]n2)cc1` [Compound A-467], the IC50 on F1F0-ATPase was below 10 µM. Also, in the assay with Ramos cells, the EC50 is below 10 µM.
With `O=C(/N=C(\Nc1cc(-c2cc(F)cc(F)c2)n[nH]1)NC1CCCC1)c1ccc(Cl)cc1` [Compound A-229], the IC50 at F1F0-ATPase is below 10 µM. Besides, the EC50 in the assay on Ramos cells is below 10 µM.
With `O=C(/N=C(/NCc1ccc(F)c(Cl)c1)Nc1cc(C(F)(F)F)[nH]n1)c1ccc(Cl)c(F)c1` [Compound A-3], the IC50 on F1F0-ATPase was below 10 µM. Also, the EC50 in the assay on Ramos cells (Homo sapiens) is below 10 µM.
For the compound `CCOCC(C)NC(=NC(=O)c1ccc(F)c(F)c1)Nc1cc(-c2ccc(Cl)cc2)n[nH]1` (stereo not drawn) [Compound A-258], on F1F0-ATPase, the IC50 was below 10 µM. Moreover, in the assay with Ramos cells, the EC50 is below 10 µM.
Consider `Cc1cccc(C(=O)N=C(Nc2cc(-c3ccc(F)cc3)n[nH]2)NC(C)(C)C)c1` [Compound A-552], for which the IC50 on F1F0-ATPase is below 10 µM. Moreover, the EC50 with Ramos cells (Homo sapiens) was below 10 µM.
As for `O=C(/N=C(/NCc1ccc(F)cc1Cl)Nc1cc(-c2ccc(F)cc2)n[nH]1)c1ccc(Cl)cc1` [Compound A-454], at F1F0-ATPase, the IC50 was below 10 µM. In the assay with Ramos cells, the EC50 was below 10 µM.
Consider `C[C@H](N/C(=N/C(=O)c1ccc(F)c(F)c1)Nc1cc(C(F)(F)F)[nH]n1)c1ccc(Cl)cc1` [Compound A-47], for which, on F1F0-ATPase, the IC50 is below 10 µM. In addition, the EC50 with Ramos cells (Homo sapiens) is below 10 µM.
Take `COC[C@H](C)N/C(=N/C(=O)c1ccc(C(F)(F)F)cc1)Nc1cc(-c2ccc(OC)c(F)c2)n[nH]1` [Compound A-572]: on F1F0-ATPase, the IC50 is below 10 µM. Moreover, the EC50 in the assay on Ramos cells was above 10 µM.
Turning to `COC[C@H](C)NC(=NC(=O)c1cccc(S(C)(=O)=O)c1)Nc1cc(-c2ccc(F)cc2)n[nH]1` [Compound A-491], the IC50 at F1F0-ATPase was below 10 µM. For the same compound, the EC50 in the assay on Ramos cells (Homo sapiens) is above 10 µM.
As for `Cc1cc(C(=O)/N=C(\Nc2cc(C(F)(F)F)[nH]n2)NC(C)(C)C)ccn1` [Compound A-84], the half-maximal inhibitory concentration (IC50) on F1F0-ATPase was below 10 µM. Further, in the assay on Ramos cells (Homo sapiens), the EC50 is above 10 µM.
The matching figures for `CC(C)(C)CN/C(=N/C(=O)c1ccc(C(F)F)cc1)Nc1cc(C(F)(F)F)[nH]n1` [Compound A-66]: below 10 µM and below 10 µM.
In the same order, the values of `O=C(/N=C(/NCc1ccc(Cl)cc1F)Nc1cc(C(F)(F)F)[nH]n1)c1ccc(Cl)cc1` [Compound A-33] are below 10 µM and below 10 µM.
Turning to `COc1cccc(C(=O)/N=C(/NCc2ccccc2C)Nc2cc(-c3ccc(F)cc3)[nH]n2)c1` [Compound A-395], the IC50 on F1F0-ATPase was below 10 µM. The EC50 in the assay with Ramos cells was below 10 µM.
For the compound `CCC(C)N/C(=N/C(=O)c1ccc(F)cc1)Nc1cc(-c2ccc(F)cc2)n[nH]1` (stereo not drawn) [Compound A-206], on F1F0-ATPase, the IC50 is below 10 µM. For the same compound, the EC50 in the assay with Ramos cells (Homo sapiens) is below 10 µM.
`O=C(/N=C(\Nc1cc(C(F)(F)F)n[nH]1)NC1CCC1)c1ccc(Cl)cc1` [Compound A-108]: the IC50 on F1F0-ATPase is below 10 µM. Moreover, the 50% effective concentration (EC50) in the assay with Ramos cells (Homo sapiens) is below 10 µM.
Take `O=C(/N=C(\Nc1cc(C(F)(F)F)n[nH]1)NC1CCC1)c1ccc(F)c(F)c1` [Compound A-99]: on F1F0-ATPase, the IC50 is below 10 µM. Further, the EC50 in the assay with Ramos cells (Homo sapiens) was below 10 µM.
Take `COCC(C)NC(=NC(=O)c1ccc(Cl)c(F)c1)Nc1cc(-c2ccc(F)cc2)n[nH]1` (stereo not drawn) [Compound A-218]: the IC50 on F1F0-ATPase was below 10 µM. The EC50 in the assay with Ramos cells was below 10 µM.
As to `O=C(N=C(Nc1cc(-c2cc(F)cc(F)c2)n[nH]1)NC1CCCC1)c1ccc(F)c(F)c1` [Compound A-365], at F1F0-ATPase, the IC50 was below 10 µM. In addition, the EC50 in the assay on Ramos cells (Homo sapiens) is below 10 µM.
Turning to `CCC(C)NC(=NC(=O)c1ccc(C(F)(F)F)cc1)Nc1cc(-c2cc(F)cc(F)c2)n[nH]1` (stereo not drawn) [Compound A-297], the IC50 at F1F0-ATPase was below 10 µM. Further, the EC50 in the assay with Ramos cells (Homo sapiens) was below 10 µM.
